The data set is described as follows: clinical studies using ibandronate in rapidly releasing coated oral administration forms (tolerability). Format: in vivo, patients. The source says:
The film dissolving upon contact with digestive juice is preferably a coating which dissolves pH-independently. The adjuvant coating may be coated using methods common in pharmaceutical technology. […] This is particularly advantageous since the administration forms of the invention are also well-tolerated by patients lying in bed.

Setting [1] is: administration forms coated with a film which quickly releases the active substance.

Structures are written as SMILES.

As for `CCCCCN(C)CCC(O)(P(=O)(O)O)P(=O)(O)O` [ibandronate, 1-hydroxy-3-(N-methyl-N-pentyl)aminopropyl-1,1-diphosphonic acid], under setting [1], the “irritations in the oesophagus when swallowing the tablets” value is “no irritations in the oesophagus” and the oesophagitis entry is “does not occur”. Where the note is “patients treated with rapidly releasing administration forms, compared to what is otherwise observed when administering aminobisphosphonates”, the “cases of nausea, vomiting, pain or diarrhoea” value was “significantly less cases”. Further, for the setting “peroral forms coated with film that dissolves pH-independently, even at high dosages”, the “side effects observed in clinical studies” value is “no significant side effects”.

The values above are taken from US20050089573A1, “Oral pharmaceutical formulation containing ibandronate” (F. HOFFMANN-LA ROCHE, priority 1996, published 2005).
